For orientation: Solubility means the concentration that dissolves in the medium under given conditions. By solubility is commonly meant the concentration that dissolves in the medium under given conditions.

Data on twelve compounds can be found in US10153510B2, “Non-aqueous redox flow batteries including 3,7-perfluoroalkylated phenothiazine derivatives” (University of Kentucky Research Foundation, priority 2014, dated 2018).

In brackets after ≈: the same amount, converted by molar mass. Several values for one entry are separate records, joined by “and”; a condition that tells them apart may be missing. Identical values can stand only once. Like-named read-outs stand apart in the source and are kept apart here.

A short description of series [1]: Stability rating of phenothiazine derivatives (Table 2 compilation). It counts as physicochemical. The text has this: (§1) Table 2 includes a compilation of data related to phenothiazine derivatives overcharge data of phenothiazine compounds as well as whether the compounds are practical for use in redox flow batteries. Some phenothiazine derivatives have solubility and stability sufficient for overcharge protection, they are not sufficiently soluble to be practical for redox flow applications. As exemplified in Table 2, EPT and DClEPT are practical for overcharge protection but are not practical for redox flow.
(§2) The data includes overcharge data at 100% overcharge for EPT, DBrEPT, DClEPT, BCF3EPT and DCNEPT from Ergun, et al. Chem. Comm., 2014, 50, 5339-5341. (30) Overcharge data at constant overcharge for EPT and BCF3EPT is derived from the studies described in Kaur et al., J. Materials Chemistry A, 2014, 2, 18190-18193. (29) Overcharge data at 100% overcharge for PT, MPT and EPT provided in Table 2 was derived from studies described in Narayana et al. ChemPhysChem, 2015, 16, 1179-1189. (32) Overcharge results for BCF3CF2EPT and BCF3(4-CF3C6H4)PT are provided in FIGS. 10 and 11, respectively.

For series [2] the following is noted: 1.2 M LiPF6 in EC/EMC; cited from earlier work.
Series [3] in a line: UV-vis stability of neutral and radical-cation forms (bulk electrolysis). It counts as physicochemical. As to conditions: for stability of neutral compound by UV-vis: 0.2 mM and 5 mM in LiBF4/PC, over 5 h. How it is done:
(§3) Electrochemical experiments were performed in an argon-filled glovebox at room temperature. Cyclic voltammetry (CV) measurements were performed in a three-electrode cell with a 3 mm diameter glassy carbon working electrode, Pt wire counter electrode, and Li foil reference electrode; voltammograms were taken of 0.2 M LiBF4 in PC containing 5 mM analyte using a CH Instruments 605E potentiostat. For UV-vis spectra of neutral compounds, catholytes were dissolved at 0.2 mM or 5 mM in 0.2 M LiBF4 in PC in glovebox and were removed in special optical glass cuvettes (Starna) after sealing with Teflon caps. The solutions were subsequently monitored for 5 h on an Agilent 8453 diode-array spectrometer.
Bulk electrolysis experiments were performed at 5 mM analyte in 0.2 M LiBF4 in PC with a Pt coiled-wire working electrode and a Li foil reference electrode, as well as a Pt wire counter electrode suspended in solution in a separate fitted glass tube. Electrolysis potentials were applied for 84 min in the glovebox, after which the solutions were diluted and removed from the glovebox in special optical glass cuvettes (Starna) sealed with Teflon caps. The solutions were subsequently monitored for 5 hours on an Agilent 8453 diode-array spectrometer.
Additionally, a compound that is stable in ambient conditions may be sensitive to electrolyte components, as was previously observed for a phenothiazine derivative with a tert-butyl group at the N position.(31) To compare the stability of the neutral and radical-cation forms of BCF3EPT to those of DBBB, UV-vis spectra were collected for both of the oxidation states of both compounds in LiBF4/PC. […] To simulate the charged species of each catholyte, the radical cation was generated by bulk electrolysis.

The nature of series [4]: Solubility of phenothiazine derivatives (Table 2 compilation). It counts as physicochemical. As to conditions: electrolyte not stated.
Text: as §1, §2

The nature of series [5]: Maximum solubility of electro-active species in 0.2 M LiBF4 in PC. As to conditions: organic solvent or mixture, thermodynamic from solid, room temperature. The format is physicochemical. Here is the method: as §3
To study the behavior of the new catholyte BCF3EPT relative to DBBB, a set of batteries with the same concentration of electro-active species as the reported DBBB/TMeQ battery (0.05 M), as well as with the highest concentration possible for all three species, were identified for comparison. The maximum solubilities for DBBB, TMeQ and BCF3EPT in 0.2 M LiBF4 in PC were ca. 0.18 M, 0.37 M, and 1.2 M, respectively. […] Batteries were also fabricated at the highest concentration possible for BCF3EPT and TMeQ (0.35 M), beyond that which was possible for DBBB. By this measure, two sets of batteries were able to be tested at the same concentrations, including one near the limiting concentration of DBBB, and a third that allowed for analysis of a battery near the solubility limit of TMeQ.

The nature of series [6]: Cyclic voltammetry, half wave redox potentials. It counts as physicochemical. As to conditions: 20 mV/s; for Low potential event vs. Li+/0: 5 mM analyte in 0.2 M LiBF4 in PC; for High potential event vs. Li+/0: 5 mM in 0.2 M LiBF4 in PC, (a) irreversible oxidation potential estimated from forward wave and estimated reverse wave. Here is the method: as §3
Cyclic voltammetry was used to characterize the electrochemical behavior of BCF3EPT and to characterize DBBB and TMeQ for comparison with reported data. The individual redox events for these electro-active materials can be used to estimate the open-circuit voltage (OCV) of an ORFB containing each catholyte-anolyte pair. LiBF4 (0.2M) was used in propylene carbonate (PC) for these experiments to allow for direct comparison with the previously reported DBBB/TMeQ battery. The voltammograms of BCF3EPT show a reversible first oxidation at a potential of 3.9 V vs. Li+/0, which corresponds to generation of the radical cation, followed by an irreversible second oxidation at ca. 4.4 V vs. Li+/0 (FIG. 2a) corresponding to formation of the dication. […] No peaks corresponding to the reduction of the neutral compounds was observed during the anodic scans of BC3EPT and DBBB in this electrolyte. […] The redox potentials of BCF3EPT and DBBB are similar, thus it is contemplated that they will give similar cell voltages when coupled with TMeQ in an ORFB.

The mark [7] stands for this setting: organic solvent or mixture, read-out: Solubility.

As for `CCN1c2ccc(C#N)cc2Sc2cc(C#N)ccc21` [BCF3(4-CF3C6H4)PT], the Stability entry in series [1] is recorded as “High”.

As for `CCN1c2ccc(C(F)(F)C(F)(F)F)cc2Sc2cc(C(F)(F)C(F)(F)F)ccc21` [BCF3CF2EPT], the Stability result in series [1] is “High”.

Take `CCN1c2ccc(C(F)(F)F)cc2Sc2cc(C(F)(F)F)ccc21` [BCF3EPT, 3,7-bis(trifluoromethyl)-N-ethylphenothiazine]: in series [2], the “stability relative to DDB” value is “higher stability”. The Stability result in series [1] is on record as “high”. The “stability of neutral compound by UV-vis” value in series [3] was “neither compound showed measurable signs of change”. The “stability of radical cation (UV-vis, comparison)” value in series [3] (0.2 M LiBF4 in PC, 5 h period) is listed as “significantly more stable”. The Solubility in series [4] (setting [7]) is 1500 to 2000 mM (≈ 545 to 727 mg/mL). Also, the solubility at 1 h in series [5] is approximately 1200 mM (≈ 436 mg/mL). Also, in series [6], the “Low potential event vs. Li+/0” value was found to be 3.9 V.

Regarding `COCCOc1cc(C(C)(C)C)c(OCCOC)cc1C(C)(C)C` [DBBB, 2,5-di-tert-butyl-1,4-bis(2-methoxyethoxy)benzene], the “stability of neutral compound by UV-vis” value in series [3] is listed as “neither compound showed measurable signs of change”. Also, in series [5], the solubility at 1 h is approximately 180 mM (≈ 60.9 mg/mL). In addition, in series [6], the “Low potential event vs. Li+/0” value was 4.0 V; the “High potential event vs. Li+/0” value is 4.7 V and 4.7^(a) V.

As to `CCN1c2ccc(Br)cc2Sc2cc(Br)ccc21` [DBrEPT], the Stability entry in series [1] is recorded as “high”. In series [4], this compound displayed a Solubility of 100 mM (≈ 38.5 mg/mL).

In the case of `CCN1c2ccc(C#N)cc2Sc2cc(C#N)ccc21` [DCNEPT], the Stability entry in series [1] was “high”. Moreover, in series [4], the Solubility entry is “low”.

Regarding `CCN1c2ccc(Cl)cc2Sc2cc(Cl)ccc21` [DClEPT], the Stability entry in series [1] is on record as “High”. In series [4], the Solubility came to 100 mM (≈ 29.6 mg/mL).

Turning to `CCN1c2ccc([N+](=O)[O-])cc2Sc2cc([N+](=O)[O-])ccc21` [DNO2EPT], the Solubility result in series [4] is on record as “Low”.

For the compound `CCN1c2ccccc2Sc2ccccc21` [EPT], the Stability result in series [1] was “High”. In addition, the Solubility in series [4] (setting [7]) came out at 100 mM (≈ 22.7 mg/mL).

In the case of `CN1c2ccccc2Sc2ccccc21` [MPT], in series [1], the Stability entry is “high”. In addition, the Solubility in series [4] stood at 100 mM (≈ 21.3 mg/mL).

In the case of `c1ccc2c(c1)Nc1ccccc1S2` [PT], the Stability result in series [1] was “Low”. This compound showed a Solubility in series [4] of 100 mM (≈ 19.9 mg/mL).

As to `Cc1ccc2nc(C)c(C)nc2c1` [TMeQ, 2,3,6-trimethyl quinoxaline], in series [5], the solubility at 1 h was approximately 370 mM (≈ 63.7 mg/mL). For the same compound, in series [6], the “Low potential event vs. Li+/0” value worked out at 2.5 V and the “High potential event vs. Li+/0” value is on record as 2.8 V.
